Source: patent publication US12643892B2, “Pyridazinone compounds for the treatment of neuromuscular diseases” (Edgewise Therapeutics, Inc., priority 2020, dated 2026)

What follows are compounds tested against Skeletal Myofibril ATPase (Rabbit Psoas myofibrils) (assay: Skeletal Myofibril ATPase Assay). Conditions: PK/LDH-coupled NADH absorbance at 340 nm.
Assay type: biochemical
Method: Overview: Myosin ATPase activity was assessed by using a coupled reaction system, in which ADP generated by the myosin ATPase function was coupled to the disappearance of NADH through the pyruvate kinase/lactate dehydrogenase (PK-LDH) system. Myosin ATPase activity produces ADP, which was used as a substrate for PK to produce pyruvate and regenerate ATP. The pyruvate was then used as a substrate by LDH to oxidize NADH to NAD+. The rate of the reaction was monitored through the time-dependent disappearance of NADH using absorbance at 340 nm. Inhibition of ATPase activity by the assayed compounds was indicated by a reduced rate of NADH loss, relative to vehicle-treated controls, over the experimental time window. To assess the selectivity of the assayed compounds for skeletal myofibrils, the compounds were counter-screened in cardiac myofibrils.
Materials: The following stock solutions and reagents were used in the Skeletal Myofibril ATPase Assay:
Stock Solutions of pCa buffer. Combine PIPES, CaCl2, and EGTA solutions with 70 mL of water. Adjust pH to 7.0 and bring final volume to 100 mL.
Buffer A & Buffer B. Buffers were stored on ice until use.
Skeletal Myofibril ATPase Assay Procedure: BSA, ATP, NADH, PEP, and DTT solutions were thawed at room temperature, then transferred to ice. Pellet-frozen myofibrils (approximately twice the required volume) were transferred into a sufficiently large tube and capped. Myofibrils were thawed by rolling in a water bath for approximately 15 min at room temperature and cooled on ice. Buffers A and B were prepared by adjusting volumes as necessary for required number of wells and stored on ice. 0.5 μL of the compounds to be assayed were added into wells of a 384-well plate. Buffers A and B were mixed by inversion immediately prior to use, then 25 μL of each was dispensed using a Multidrop dispenser (Buffer A first, then Buffer B). The absorbance within the wells was measured at 340 nm, using a kinetic protocol in which the wells are read every 1.5-2 min for 1 h. The reaction rate was qualitatively assessed by subtracting the minimum absorbance value from the maximum value for each well, using either the SoftMax Pro plate reader software or a spreadsheet program such as Excel. Using GraphPad Prism 8.0, the data was normalized, with 100% activity defined as the absorbance change in the 1% DMSO vehicle wells and 0% assigned to no change in absorbance over the course of the experiment. The normalized data were fit to a variable-slope four-parameter logistic model, constraining the bottom to be 0 or greater. Compounds of Table 1 to 3 were tested and results of the assay appear in Table 4 herein. A=IC50 is less than or equal to 10 μM; B=IC50 is greater than 10 μM and less than 100 μM; C=IC50 is greater than 100 μM.

| IC50 [µM] | Compound |
| --- | --- |
| ≤ 10 | O=c1ccc(-c2nc(-c3cccc(F)c3)no2)cn1Cc1cncnc1 [Compound 106, 5-(3-(3-fluorophenyl)-1,2,4-oxadiazol-5-yl)-1-(pyrimidin-5-ylmethyl)pyridin-2(1H)-one] |
| 10 to 100 | Cc1ccc(-c2ccc(=O)n(CC(=O)NCc3ccccc3)n2)s1 [Compound 35, N-benzyl-2-(3-(5-methylthiophen-2-yl)-6-oxopyridazin-1(6H)-yl)acetamide] |
| > 100 | O=C(Cn1nc(-c2cccs2)ccc1=O)Nc1ccc2cc[nH]c2c1 [Compound 48, N-(1H-indol-6-yl)-2-(6-oxo-3-(thiophen-2-yl)pyridazin-1(6H)-yl)acetamide] |
| > 120 | O=c1ccc(-c2nc(-c3ccsc3)no2)cn1Cc1ccccc1C(F)(F)F [Compound 115, 5-(3-(thiophen-3-yl)-1,2,4-oxadiazol-5-yl)-1-(2-(trifluoromethyl)benzyl)pyridin-2(1H)-one] |
| 10 to 100 | Cc1ccc(-c2ccc(=O)n(CC(=O)N[C@](C)(C#N)C(C)C)n2)s1 [Compound 36, (S)-N-(2-cyano-3-methylbutan-2-yl)-2-(3-(5-methylthiophen-2-yl)-6-oxopyridazin-1(6H)-yl)acetamide] |
| ≤ 10 | O=c1ccc(-c2nc(-c3cccc(F)c3)no2)cn1Cc1cccnc1 [Compound 102, 5-(3-(3-fluorophenyl)-1,2,4-oxadiazol-5-yl)-1-(pyridin-3-ylmethyl)pyridin-2(1H)-one] |
| > 120 | O=c1ccc(-c2nc(-c3ccc(Cl)cc3)no2)cn1Cc1ccc(Cl)c(Cl)c1 [Compound 124, 5-(3-(4-chlorophenyl)-1,2,4-oxadiazol-5-yl)-1-(3,4-dichlorobenzyl)pyridm-2(1H)-one] |
| > 100 | CCNC(=O)Cn1nc(-c2nc(-c3cccc(Cl)c3)cs2)ccc1=O [Compound 81, 2-(3-(4-(3-chlorophenyl)thiazol-2-yl)-6-oxopyridazin-1(6H)-yl)-N-ethylacetamide] |
| > 120 | Cc1cccc(-c2noc(-c3ccc(=O)n(Cc4ccc(C(F)(F)F)nc4)c3)n2)c1 [Compound 114, 5-(3-(m-tolyl)-1,2,4-oxadiazol-5-yl)-l-((6-(trifluoromethyl)pyridin-3-yl)methyl)pyridin-2(1H)-one] |
| 10 to 100 | O=c1ccc(-c2nc(-c3cncc(F)c3)no2)cn1Cc1cccnc1 [Compound 108, 5-(3-(5-fluoropyridin-3-yl)-1,2,4-oxadiazol-5-yl)-1-(pyridin-3-ylmethyl)pyridin-2(1H)-one] |
| > 100 | O=C(Cn1nc(-c2cccs2)ccc1=O)Nc1ccc(Cl)cc1Cl [Compound 42, N-(2,4-dichlorophenyl)-2-(6-oxo-3-(thiophen-2-yl)pyridazin-1(6H)-yl)acetamide] |
| > 100 | O=c1ccc(-c2cccs2)nn1Cc1ccccc1F [Compound 58, 2-(2-fluorobenzyl)-6-(thiophen-2-yl)pyridazin-3(2H)-one] |
| 10 to 100 | COCCn1nc(-c2nc(-c3ccc(F)c(F)c3)no2)ccc1=O [Compound 75, 6-(3-(3,4-difluorophenyl)-1,2,4-oxadiazol-5-yl)-2-(2-methoxyethyl)pyridazin-3(2H)-one] |
| 10 to 100 | Cc1ccc(-c2ccc(=O)n(CC(=O)NC3CCCC3)n2)s1 [Compound 39, N-cyclopentyl-2-(3-(5-methylthiophen-2-yl)-6-oxopyridazin-1(6H)-yl)acetamide] |
| > 120 | O=c1ccc(-c2nc(-c3ccccc3F)no2)cn1Cc1cccnc1 [Compound 111, 5-(3-(2-fluorophenyl)-1,2,4-oxadiazol-5-yl)-1-(pyridin-3-ylmethyl)pyridin-2(1H)-one] |
| > 100 | CC(C)NC(=O)Cn1nc(-c2cccs2)ccc1=O [Compound 49, N-isopropyl-2-(6-oxo-3-(thiophen-2-yl)pyridazin-1(6H)-yl)acetamide] |
| ≤ 10 | O=c1ccc(-c2nnc(-c3cccc(Cl)c3)o2)nn1Cc1ccccc1 [Compound 73, 2-benzyl-6-(5-(3-chlorophenyl)-1,3,4-oxadiazol-2-yl)pyridazin-3(2H)-one] |
| 10 to 100 | Cc1ccc(-c2ccc(=O)n(CC(=O)N(C)c3ccccc3)n2)s1 [Compound 38, N-methyl-2-(3-(5-methylthiophen-2-yl)-6-oxopyridazin-1(6H)-yl)-N -phenylacetamide] |

| IC50 [µM] | Compound |
| --- | --- |
| ≤ 10 | CCCNC(=O)Cn1nc(-c2nc(-c3ccc(Cl)cc3)no2)ccc1=O [Compound 51, 2-(3-(3-(4-chlorophenyl)-1,2,4-oxadiazol-5-yl)-6-oxopyridazin-1(6H)-yl)-N-propylacetamide] |
| ≤ 10 | CCNC(=O)Cn1nc(-c2nnc(C34CC(C3)C4)s2)ccc1=O [Compound 32, 2-(3-(5-(bicyclo[1.1.1]pentan-1-yl)-1,3,4-thiadiazol-2-yl)-6-oxopyridazin-1(6H)-yl)-N-ethylacetamide] |
| ≤ 10 | O=c1ccc(-c2nc(-c3ccc(F)c(F)c3)no2)cn1Cc1cccnc1 [Compound 97, 5-(3-(3,4-difluorophenyl)-1,2,4-oxadiazol-5-yl)-1-(pyridin-3-ylmethyl)pyridin-2(1H)-one] |
| ≤ 10 | O=c1ccc(-c2nc(-c3cncc(Cl)c3)no2)cn1Cc1cccnc1 [Compound 99, 5-(3-(5-chloropyridin-3-yl)-1,2,4-oxadiazol-5-yl)-1-(pyridin-3-ylmethyl)pyridin-2(1H)-one] |
| 10 to 100 | Cc1noc(-c2ccc(=O)n(Cc3ccc(F)cc3)n2)n1 [Compound 69, 2-(4-fluorobenzyl)-6-(3-methyl-1,2,4-oxadiazol-5-yl)pyridazin-3(2H)-one] |
| > 120 | O=c1ccc(-c2nc(-c3ccc(Cl)cc3)no2)cn1Cc1cccnc1 [Compound 125, 5-(3-(4-chlorophenyl)-1,2,4-oxadiazol-5-yl)-1-(pyridin-3-ylmethyl)pyridin-2(1H)-one] |
| ≤ 10 | CCNC(=O)Cn1nc(-c2ncc(-c3cccc(Cl)c3)o2)ccc1=O [Compound 27, 2-(3-(5-(3-chlorophenyl)oxazol-2-yl)-6-oxopyridazin-1(6H)-yl)-N-ethylacetamide] |
| ≤ 10 | Cn1ccc2c(NC(=O)Cn3nc(-c4cccs4)ccc3=O)cccc21 [Compound 83, N-(1-methyl-1H-indol-4-yl)-2-(6-oxo-3-(thiophen-2-yl)pyridazin-1(6H)-yl)acetamide] |
| 10 to 100 | O=c1ccc(-c2cccs2)nn1Cc1cccc(F)c1 [Compound 57, 2-(3-fluorobenzyl)-6-(thiophen-2-yl)pyridazin-3(2H)-one] |
| ≤ 10 | O=C(Cn1nc(-c2nnc(-c3ccccn3)s2)ccc1=O)NC1CCC1 [Compound 22, N-cyclobutyl-2-(6-oxo-3-(5-(pyridin-2-yl)-1,3,4-thiadiazol-2-yl)pyridazin-1(6H)-yl)acetamide] |
| > 120 | O=c1ccc(-c2nc(-c3ccccc3Cl)no2)cn1Cc1noc(C2CC2)n1 [Compound 113, 5-(3-(2-chlorophenyl)-1,2,4-oxadiazol-5-yl)-1-((5-cyclopropyl-1,2,4-oxadiazol-3-yl)methyl)pyridin-2(lH)-one] |
| 10 to 100 | Cc1cccc(-c2noc(-c3ccc(=O)n(Cc4cccnc4)c3)n2)c1 [Compound 109, 1-(pyridin-3-ylmethyl)-5-(3-(m-tolyl)-1,2,4-oxadiazol-5-yl)pyridin-2(1H)-one] |
| > 120 | CC(c1cncc(F)c1)n1cc(-c2nc(-c3cccc(Cl)c3)no2)ccc1=O (stereo not drawn) [Compound 117, 5-(3-(3-chlorophenyl)-1,2,4-oxadiazol-5-yl)-1-(1-(5-fluoropyridin-3-yl)ethyl)pyridin-2(1H)-one] |
| ≤ 10 | COc1ccc(Cn2cc(-c3nc(-c4cccc(C)c4)no3)ccc2=O)cn1 [Compound 88, 1-((6-methoxypyridin-3-yl)methyl)-5-(3-(m-tolyl)-1,2,4-oxadiazol-5-yl)pyridin-2(1H)-one] |
| > 120 | Cc1cccc(-c2noc(-c3ccc(=O)n(Cc4cccnc4C)c3)n2)c1 [Compound 118, 1-((2-methylpyridin-3-yl)methyl)-5-(3-(m-tolyl)-1,2,4-oxadiazol-5-yl)pyridin-2(1H)-one] |
| 10 to 100 | CCCn1nc(-c2nc(COc3ccccc3)no2)ccc1=O [Compound 77, 6-(3-(phenoxymethyl)-1,2,4-oxadiazol-5-yl)-2-propylpyridazin-3(2H)-one] |
| ≤ 10 | Cc1cccc(-c2noc(-c3ccc(=O)n(Cc4cccnc4)c3)n2)c1 [Compound 84, 1-(pyridin-3-ylmethyl)-5-(3-(m-tolyl)-1,2,4-oxadiazol-5-yl)pyridin-2(1H)-one] |
| 10 to 100 | O=c1ccc(-c2nc(-c3ccccc3)no2)cn1Cc1cccnc1 [Compound 107, 5-(3-phenyl-1,2,4-oxadiazol-5-yl)-1-(pyridin-3-ylmethyl)pyridin-2(1H)-one] |
